Structures can show the parent of a compound that is named as a salt.
How the values were obtained:
[1] = tested on: H1N1 T.R. (Tamiflu-resistant variant of H1N1 viral strain); format: cell-based, Influenza A virus
[2] = tested on: Tamiflu-resistant H1N1 viral strain rWSN^H274Y; format: cell-based, Influenza A virus

## COc1c(C)c2c(c(O)c1C/C=C(\C)CCC(=O)OCCN1CCOCC1)C(=O)OC2 [MPM, 2-morpholinoethyl(E)-6-(1,3-dihydro-4-hydroxy-6-methoxy-7-methyl-3-oxo-5-isobenzofuranyl)-4-methyl-4-hexenoate]
[1]
  Minimal Inhibitory Concentration (MIC), H1N1 T.R.: 0.39 µg/mL

## COc1c(C)c2c(c(O)c1C/C=C(\C)CCC(=O)OCCN1CCOCC1)C(=O)OC2 [MPM-N, mycophenolate mofetil hydrochloride]
[2]
  concentration required to inhibit rWSN^H274Y (immunofluorescence staining): 5 µM

## NC(=O)c1ncn([C@@H]2O[C@H](CO)[C@@H](O)[C@H]2O)n1 [Ribavirin, reference compound]
[2]
  concentration required to inhibit rWSN^H274Y (immunofluorescence staining): 100 µM
